Target: T1, human TGR5 (Homo sapiens, UniProt Q8TDU6)
T1 construct: expressed in transfected cells; host or cells: HEK293
T1 sequence (Q8TDU6 1-330): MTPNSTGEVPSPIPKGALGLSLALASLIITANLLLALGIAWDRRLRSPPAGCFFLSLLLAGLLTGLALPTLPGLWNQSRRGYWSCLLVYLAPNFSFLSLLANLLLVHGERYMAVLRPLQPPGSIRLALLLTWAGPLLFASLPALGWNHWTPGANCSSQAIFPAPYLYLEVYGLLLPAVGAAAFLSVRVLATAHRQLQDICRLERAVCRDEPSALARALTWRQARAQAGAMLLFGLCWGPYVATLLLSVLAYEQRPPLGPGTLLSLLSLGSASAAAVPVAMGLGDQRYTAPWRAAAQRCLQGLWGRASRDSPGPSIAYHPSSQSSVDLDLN
Assay: Cell-based TGR5 assay (cAMP generation, HTRF)
Conditions: HEK293 cells stably transfected with human TGR5; cAMP by HTRF; 30 minutes at 37° C.; read-out: pEC50 Human TGR5 (converted)
Method in brief: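 First, compounds in 3-fold serial dilution were placed in HBSS with 10 mM HEPES pH 7.4 and 0.5 mM IBMX. Next, human TGR5-expressing HEK293 cells were added and incubated 30 min at 37° C. Finally, cAMP was detected by HTRF and pEC50 derived by logistic fitting.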

| Structure (SMILES) | EC50 [nM] |
| --- | --- |
| CC(CCCN(CCCCO)C(=O)[C@@H](O)[C@@H](O)[C@H](O)[C@@H](O)CO)c1ccc(Cl)c(CNC2(c3cnccc3-c3ccccc3OC3CC3)CC2)c1 (stereo partly drawn) [Compound I-283, (2S,3S,4R,5S)-N-(4-{4-chloro-3-[({1-[4-(2-cyclopropoxyphenyl)pyridin-3-yl]cyclopropyl}amino)methyl]phenyl}pentyl)-2,3,4,5,6-pentahydroxy-N-(4-hydroxybutyl)hexanamide] | < 100 |
| O=C(CCCCc1cc(Cl)c(COC2(c3cnccc3-c3ccccc3OC3CC3)CC2)cc1Cl)N[C@@H](CO)[C@@H](O)[C@H](O)[C@H](O)CO [Compound I-156, 5-[2,5-dichloro-4-({1-[4-(2-cyclopropoxyphenyl)pyridin-3-yl]cyclopropoxy}methyl)phenyl]-N-[(2S,3R,4S,5R)-1,3,4,5,6-pentahydroxyhexan-2-yl]pentanamide] | < 100 |
| N[C@@H]1[C@@H](O)[C@@H](O[C@@H]2[C@@H](O)[C@H](O[C@H]3O[C@H](CNC(=O)CCCCc4cc(Cl)c(COC5(c6cnccc6-c6ccccc6OC6CC6)CC5)cc4Cl)[C@@H](O)[C@H](O)[C@H]3O)[C@@H](N)C[C@H]2N)O[C@H](CO)[C@H]1O (stereo in doubt) [Compound I-181, N-{[(2R,3S,4S,5R,6R)-6-{[(1R,2R,3S,4R,6S)-4,6-diamino-3-{[(2S,3R,4S,5S,6R)-4-amino-3,5-dihydroxy-6-(hydroxymethyl)oxan-2-yl]oxy}-2-hydroxycyclohexyl]oxy}-3,4,5-trihydroxyoxan-2-yl]methyl}-5-[2,5-dichloro-4-({1-[4-(2-cyclopropoxyphenyl)pyridin-3-yl]cyclopropoxy}methyl)phenyl]pentanamide] | < 100 |
| CC(CCCCNC(=O)N[C@@H](CO)[C@@H](O)[C@H](O)[C@H](O)CO)c1ccc(Cl)c(CNC2(c3cnccc3-c3ccccc3OC3CC3)CC2)c1 (stereo partly drawn) [Compound I-266, 1-(5-{4-chloro-3-[({1-[4-(2-cyclopropoxyphenyl)pyridin-3-yl]cyclopropyl}amino)methyl]phenyl}hexyl)-3-[(2S,3R,4S,5R)-1,3,4,5,6-pentahydroxyhexan-2-yl]urea] | < 100 |
| Cc1cc(COC2(c3cnccc3-c3ccccc3OC3CC3)CC2)c(Cl)cc1CCCCNC(=O)NC[C@@H]1O[C@H](C(=O)O)[C@@H](O)[C@H](O)[C@H]1O [Compound I-110, (2S,3S,4R,5R,6S)-6-{[({4-[5-chloro-4-({1-[4-(2-cyclopropoxyphenyl)pyridin-3-yl]cyclopropoxy}methyl)-2-methylphenyl]butyl}carbamoyl)amino]methyl}-3,4,5-trihydroxyoxane-2-carboxylic acid] | < 100 |
| O=C(CN1CCC(NC(=O)NCCCCCSc2ccc(Cl)c(COC3(c4cnccc4-c4ccccc4OC4CC4)CC3)c2)CC1)NC[C@H](O)[C@@H](O)[C@H](O)[C@H](O)CO [Compound I-631, 2-(4-{[(5-{[4-chloro-3-({1-[4-(2-cyclopropoxyphenyl)pyridin-3-yl]cyclopropoxy}methyl)phenyl]sulfanyl}pentyl)carbamoyl]amino}piperidin-1-yl)-N-[(2S,3R,4R,5R)-2,3,4,5,6-pentahydroxyhexyl]acetamide] | < 100 |
| CCN(C[C@H](O)[C@@H](O)[C@H](O)[C@H](O)CO)C(=O)CCCC(C)c1ccc(C)c(COC2(c3cnccc3-c3ccccc3OC3CC3)CC2)c1 (stereo partly drawn) [Compound I-375, 5-[3-({1-[4-(2-cyclopropoxyphenyl)pyridin-3-yl]cyclopropoxy}methyl)-4-methylphenyl]-N-ethyl-N-[(2S,3R,4R,5R)-2,3,4,5,6-pentahydroxyhexyl]hexanamide] | < 100 |
| Cc1ccc(C(C)CCCN(C(=O)[C@@H](O)[C@@H](O)[C@H](O)[C@@H](O)CO)C2CCOCC2)cc1CNC1(c2cnccc2-c2ccccc2OC2CC2)CC1 (stereo partly drawn) [Compound I-304, (2S,3S,4R,5S)-N-(4-{3-[({1-[4-(2-cyclopropoxyphenyl)pyridin-3-yl]cyclopropyl}amino)methyl]-4-methylphenyl}pentyl)-2,3,4,5,6-pentahydroxy-N-(oxan-4-yl)hexanamide] | < 100 |
| CSc1ccc(C)c(CNC2(c3cnccc3-c3ccccc3OC3CC3)CC2)n1 [Compound I-25, 1-[4-(2-cyclopropoxyphenyl)pyridin-3-yl]-N-{[3-methyl-6-(methylsulfanyl)pyridin-2-yl]methyl}cyclopropan-1-amine] | < 100 |
| Cc1cc(COC2(c3cnccc3-c3ccccc3OC3CC3)CC2)c(Cl)cc1CCCCNC(=O)N[C@H](CCCCN)C(=O)O [Compound I-119, (2R)-6-amino-2-[({4-[5-chloro-4-({1-[4-(2-cyclopropoxyphenyl)pyridin-3-yl]cyclopropoxy}methyl)-2-methylphenyl]butyl}carbamoyl)amino]hexanoic acid] | 126 to 1000 |
| O=C(CCCCc1cc(Cl)c(COC2(c3cnccc3-c3ccccc3OC3CC3)CC2)cc1Cl)N(C[C@H](O)[C@@H](O)[C@H](O)[C@H](O)CO)C1CCOCC1 [Compound I-131, 5-[2,5-dichloro-4-({1-[4-(2-cyclopropoxyphenyl)pyridin-3-yl]cyclopropoxy}methyl)phenyl]-N-(oxan-4-yl)-N-[(2S,3R,4R,5R)-2,3,4,5,6-pentahydroxyhexyl]pentanamide] | < 100 |
| COCCCN(C[C@H](O)[C@@H](O)[C@H](O)[C@H](O)CO)C(=O)CCCC(C)c1ccc(C)c(CNC2(c3cnccc3-c3ccccc3OC3CC3)CC2)c1 (stereo partly drawn) [Compound I-362, 5-{3-[({1-[4-(2-cyclopropoxyphenyl)pyridin-3-yl]cyclopropyl}amino)methyl]-4-methylphenyl}-N-(3-methoxypropyl)-N-[(2S,3R,4R,5R)-2,3,4,5,6-pentahydroxyhexyl]hexanamide] | < 100 |
| CN(CCCCNC(=O)N[C@@H](CO)[C@@H](O)[C@H](O)[C@H](O)CO)S(=O)(=O)c1ccc(Cl)c(CNC2(c3cnccc3-c3ccccc3OC3CC3)CC2)c1 [Compound I-472, 1-(4-{N-methyl4-chloro-3-[({1-[4-(2-cyclopropoxyphenyl)pyridin-3-yl]cyclopropyl}amino)methyl]benzenesulfonamido}butyl)-3-[(2S,3R,4S,5R)-1,3,4,5,6-pentahydroxyhexan-2-yl]urea] | < 100 |
| O=C([C@@H](O)[C@@H](O)[C@H](O)[C@@H](O)CO)N(CCCCSc1ccc(Cl)c(COC2(c3cnccc3-c3ccccc3OC3CC3)CC2)c1)C1CCOCC1 [Compound I-514, (2S,3S,4R,5S)-N-(4-{[4-chloro-3-({1-[4-(2-cyclopropoxyphenyl)pyridin-3-yl]cyclopropoxy}methyl)phenyl]sulfanyl}butyl)-2,3,4,5,6-pentahydroxy-N-(oxan-4-yl)hexanamide] | < 100 |
| CC(=O)NCCCCN(CCCCSc1ccc(Cl)c(COC2(c3cnccc3-c3ccccc3OC3CC3)CC2)c1)C(=O)[C@@H](O)[C@@H](O)[C@H](O)[C@@H](O)CO [Compound I-568, (2S,3S,4R,5S)-N-(4-{[4-chloro-3-({1-[4-(2-cyclopropoxyphenyl)pyridin-3-yl]cyclopropoxy}methyl)phenyl]sulfanyl}butyl)-N-(4-acetamidobutyl)-2,3,4,5,6-pentahydroxyhexanamide] | < 100 |
| O=C(CC1CN(S(=O)(=O)c2ccc(Cl)c(COC3(c4cnccc4-c4ccccc4OC4CC4)CC3)c2)C1)NC[C@H](O)[C@@H](O)[C@H](O)[C@H](O)CO [Compound I-438, 2-{1-[4-chloro-3-({1-[4-(2-cyclopropoxyphenyl)pyridin-3-yl]cyclopropoxy}methyl)benzenesulfonyl]azetidin-3-yl}-N-[(2S,3R,4R,5R)-2,3,4,5,6-pentahydroxyhexyl]acetamide] | < 100 |
| O=C(NCCCN1CCN(S(=O)(=O)c2ccc(Cl)c(COC3(c4cnccc4-c4ccccc4OC4CC4)CC3)c2)CC1)NC[C@H](O)[C@@H](O)[C@H](O)[C@H](O)CO [Compound I-423, 1-(3-{4-[4-chloro-3-({1-[4-(2-cyclopropoxyphenyl)pyridin-3-yl]cyclopropoxy}methyl)benzenesulfonyl]piperazin-1-yl}propyl)-3-[(2S,3R,4R,5R)-2,3,4,5,6-pentahydroxyhexyl]urea] | 126 to 1000 |
| CCOc1cc(F)c(F)cc1-c1ccncc1C1(NCc2cc(Cl)ccc2Cl)CC1 [Compound I-15, N-[(2,5-dichlorophenyl)methyl]-1-[4-(2-ethoxy-4,5-difluorophenyl)pyridin-3-yl]cyclopropan-1-amine] | 126 to 1000 |
| O=C(NCCCCC[S+]([O-])c1ccc(Cl)c(COC2(c3cnccc3-c3ccccc3OC3CC3)CC2)c1)N[C@@H](CO)[C@@H](O)[C@H](O)[C@H](O)CO (stereo partly drawn) [Compound I-642, 1-{5-[4-chloro-3-({1-[4-(2-cyclopropoxyphenyl)pyridin-3-yl]cyclopropoxy}methyl)benzenesulfinyl]pentyl}-3-[(2S,3R,4S,5R)-1,3,4,5,6-pentahydroxyhexan-2-yl]urea] | < 100 |
| Clc1cccc(CNC2(c3cnccc3-c3ccccc3OC3CC3)CC2)c1Cl [Compound I-26, 1-[4-(2-cyclopropoxyphenyl)pyridin-3-yl]-N-[(2,3-dichlorophenyl)methyl]cyclopropan-1-amine] | 126 to 1000 |
| Cc1ccc(C(CO)CCCNC(=O)NC[C@H](O)[C@@H](O)[C@H](O)[C@H](O)CO)cc1CNC1(c2cnccc2-c2ccccc2OC2CC2)CC1 (stereo partly drawn) [Compound I-387, 1-(4-{3-[({1-[4-(2-cyclopropoxyphenyl)pyridin-3-yl]cyclopropyl}amino)methyl]-4-methylphenyl}-5-hydroxypentyl)-3-[(2S,3R,4R,5R)-2,3,4,5,6-pentahydroxyhexyl]urea] | 126 to 1000 |

From patent US12084472B2 (Ardelyx, Inc., priority 2015, dated 2024)
